According to article PMC7966987, “Insights into the catalytic properties of the mitochondrial rhomboid protease PARL” (The Journal of Biological Chemistry, 2021):
Values joined by “and” are separate entries in the source; they are usually repeats but may differ in a detail not shown here. Equal values may be shown once. “Also recorded” adds a separate entry of the source.

Assays:
Assay type in all cases: biochemical
[1] = test system: human PARLΔ77; assay: IQ-peptide substrate cleavage kinetics, β-cleavage PARLΔ77 in detergent; conditions: for fold change Km/kcat, PARLΔ77/PARLΔ55 / fold change kcat, PARLΔ77/PARLΔ55: PARL in DDM; for turnover rate with PARLΔ77 compared with PARLΔ55 / ranking of substrate cleavage: in detergent; for ranking of substrate cleavage: PARLΔ55 and PARLΔ77, by kcat or kcat/KM
Text: To further evaluate the cleavage of other known substrates of PARL, we adopted a more facile system to examine cleavage of multiple substrates and generated internally quenched (IQ) peptide substrates ([25], [36], [37], [38]) based on the amino acids flanking the PARL cleavage sites of PINK1 ([39]), PGAM5 ([8]), and Smac/Diablo ([11]). […] The assay allowed us to determine the catalytic parameters for the three primary PARL substrates and examine the substrate specificity (Fig. 2, Tables S2–S4).
(§1) Assays with FRET-PINK1^70–134 were conducted as previously described ([26]). For EDANS/Dabcyl 10-mer IQ peptides (PINK1, PGAM5, Smac/Diablo), lyophilized peptides were initially dissolved in DMSO to obtain a stock solution. The IQ peptide substrates in a concentration range of 0.1–70 μM were incubated with activity assay buffer (50 mM Tris-HCl pH 7.0, 150 mM NaCl, 10% glycerol, 0.1% DDM) in a 384-well black-bottomed plate at 37 °C for 30 min in a multiwell plate reader (SynergyMx, BioTek). For all concentrations of IQ peptide, the DMSO was kept constant at 5%. Following preincubation, PARL was added to a final concentration of 0.8 μM to initiate the cleavage reaction. Fluorescence readings were taken every 3 min over a 3 h time course at ƛex = 336 nm and ƛem = 490 nm. The initial velocity was determined from the fluorescence readings over the time course. For each substrate concentration, a no-enzyme control was subtracted to eliminate background fluorescence changes not related to substrate cleavage. Relative fluorescence units were converted to concentration (μM) by determining the maximum change in fluorescence observed for each substrate concentration when fully digested. GraphPad Prism software was used for Michaelis–Menten analysis of kinetic curves. All kinetic data were obtained using at least three biological replicates (different enzyme preparations) with technical duplicates for each experiment. For kinetic measurements in detergent with all three substrates, the activity assays were repeated at least five times. In addition, after each protease purification, the quality control of purified PARL was controlled by measuring its enzymatic activity. Minimum of three experimental replicates with two technical replicates were used for data analysis.

[2] = biological target: T1, human PARLΔ55 (Homo sapiens, UniProt Q9H300); assay: IQ-peptide substrate cleavage kinetics, PARLΔ55 in proteoliposomes; conditions: PARLΔ55 in PLs (E. coli polar lipids), 50 mM Tris-HCl pH 7.0, 150 mM NaCl, 10% glycerol, no DDM, 37 °C; mean ± SEM
T1 construct: to generate full-length (FL) starting at residue 55 or the β-cleavage form truncated at residue 77; GFP-hexahistidine (behind a TEV cleavage site) (C, cleaved yes); made in house; host or cells: Pichia pastoris
T1 sequence (Q9H300 56-379): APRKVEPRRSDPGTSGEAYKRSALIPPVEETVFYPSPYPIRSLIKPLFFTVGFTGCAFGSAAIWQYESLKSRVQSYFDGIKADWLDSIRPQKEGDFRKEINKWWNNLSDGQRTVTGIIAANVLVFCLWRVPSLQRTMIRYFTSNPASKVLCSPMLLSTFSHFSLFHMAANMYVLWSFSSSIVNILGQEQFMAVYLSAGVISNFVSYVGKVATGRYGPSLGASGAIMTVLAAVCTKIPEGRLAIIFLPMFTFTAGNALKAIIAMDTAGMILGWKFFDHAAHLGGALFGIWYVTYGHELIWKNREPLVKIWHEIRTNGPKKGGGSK
Text: (§2) To assess the activity of recombinant PARL toward known substrates in a lipid bilayer, full-length and β-truncated PARL were reconstituted in proteoliposomes (PLs) using Escherichia coli lipids that closely resemble the composition of the IMM ([31]). We determined that the EDANS/Dabcyl - FRET tags prevented incorporation of the substrates into PL; however, the substrate could still be cleaved since the active site is proposed to be near the lipid/water interface ([40], [41]) analogous to bacterial rhomboid proteases (Fig. 1). To calculate the specific activity of the protease, we quantified the fraction of PARL in the PLs with an outward facing active site using a membrane […] activity-based TAMRA-labeled fluorophosphonate probe ([42]). […] These values were used to calculate specific activity of the PARL protease. Next, we compared cleavage of three IQ-peptide substrates by reconstituted full-length mature PARLΔ55 and the β-truncated form, PARLΔ77 (Fig. 3, Tables S5 and S6).
as §1
(§3) E. coli polar lipids (Avanti), 400 μg in chloroform, were dried under nitrogen stream in a glass tube to yield a thin film of lipid. The tube was incubated overnight in a desiccator to completely remove all traces of solvent. In total, 50 μl of water and DDM detergent was added to the lipid film for resuspension at room temperature for 10 min, followed by the addition of purified PARL (400 μg) in 50 mM Tris-HCl, pH 8.0, 150 mM NaCl, 20% glycerol, 0.1% DDM, to yield the final weight ratio of 1 PARL:1 lipid:2 detergent. The detergent was slowly removed by the addition of SM2 Biobeads (Bio-Rad) while stirring on ice for 6 h to allow for the generation of proteoliposomes (PL); the process was controlled by the regimen of Biobead addition. To purify the PL, 50%:20% sucrose density gradient ultracentrifugation was used. A TAMRA probe (ThermoFisher) was used to determine the orientation of reconstituted PARL, which specifically and covalently labels serine residues of an enzymatically active serine protease. In total, 2 μM of TAMRA probe was added to PL samples and incubated for 1 h, allowing the TAMRA probe to label only the outward-facing accessible active sites. […]

[3] = test system: human PARLΔ77; assay: IQ-peptide substrate cleavage kinetics, PARLΔ77 in proteoliposomes; conditions: for fold change Km/kcat, PARLΔ77/PARLΔ55 / fold change kcat, PARLΔ77/PARLΔ55: PARL in PLs; for turnover / proteolysis with PARLΔ77 compared with PARLΔ55: in PL
Text: as §2, §1, §3

[4] = biological target: T2, PARLΔ77 (Homo sapiens, UniProt Q9H300); assay: as above; conditions: for ranking of substrate cleavage: in proteoliposomes, by kcat, KM or kcat/KM
T2 construct: GFP-hexahistidine (behind a TEV cleavage site) (C, cleaved yes); made in house; host or cells: Pichia pastoris
T2 sequence (Q9H300 78-379): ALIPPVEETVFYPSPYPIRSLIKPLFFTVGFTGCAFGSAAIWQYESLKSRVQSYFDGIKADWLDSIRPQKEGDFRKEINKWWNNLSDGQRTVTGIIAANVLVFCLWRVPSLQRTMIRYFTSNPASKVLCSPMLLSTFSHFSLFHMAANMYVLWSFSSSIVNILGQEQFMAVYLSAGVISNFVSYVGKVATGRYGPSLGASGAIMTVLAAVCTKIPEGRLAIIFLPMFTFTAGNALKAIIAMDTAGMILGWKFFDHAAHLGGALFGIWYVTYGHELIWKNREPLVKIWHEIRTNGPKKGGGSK
Text: as §2, §1, §3

| Substance | fold change Km/kcat, PARLΔ77/PARLΔ55 [1] [fold] | fold change kcat, PARLΔ77/PARLΔ55 [1] [fold] | turnover rate with PARLΔ77 compared with PARLΔ55 [1] | Km [2] [µM] | kcat (turnover rate) [2] [s⁻¹] | kcat/KM (catalytic efficiency) [2] [M⁻¹ s⁻¹] | fold change Km/kcat, PARLΔ77/PARLΔ55 [3] [fold] | fold change kcat, PARLΔ77/PARLΔ55 [3] [fold] | ranking of substrate cleavage [1] | ranking of substrate cleavage [4] | turnover rate with PARLΔ77 compared with PARLΔ55 ([1]; listed as IQ-Smac/Diablo) | turnover rate with PARLΔ77 compared with PARLΔ55 ([1]; listed as Smac/Diablo) | turnover rate ([4]; PARLΔ77 in proteoliposomes) | turnover / proteolysis with PARLΔ77 compared with PARLΔ55 ([3]; listed as IQ-Smac/Diablo) | turnover / proteolysis with PARLΔ77 compared with PARLΔ55 ([3]; listed as Smac/Diablo) |
| --- | --- | --- | --- | --- | --- | --- | --- | --- | --- | --- | --- | --- | --- | --- | --- |
| (DABCYL)-AVFLAFGLGL-Glu(EDANS) [IQ-PINK1^99–108, internally quenched DABCYL/EDANS peptide substrate based on PINK1 PARL cleavage site] | 2 | 3 | increased | 13 ± 2 | 0.0025 ± 0.00017 | 190 ± 28 | 5 | 3 |  |  |  |  |  |  |  |
| (DABCYL)-AVFLSAVAVG-Glu(EDANS) [IQ-PGAM5^20–29, internally quenched DABCYL/EDANS peptide substrate based on PGAM5 PARL cleavage site] | 0.6 | 2 | increased | 1.3 ± 0.2 | 0.00133 ± 0.000333 | 1000 ± 170 | 7 | 4 | most efficiently cleaved | the preferred substrate with the lowest KM and the highest catalytic efficiency; also recorded: cleaved with the highest efficiency |  |  |  |  |  |
| (DABCYL)-GVT LCAVPIA-Glu(EDANS) [IQ-Smac/Diablo^51–60, internally quenched DABCYL/EDANS peptide substrate based on Smac/Diablo PARL cleavage site] | 1 | 1 |  | 3.9 ± 0.7 | 0.00153 ± 8.3e-05 | 389 ± 83 | 2 | 10 | fastest cleaved | the fastest | no significant difference | remained unchanged | 1.0 ± 0.1 min⁻¹ and 1 min⁻¹ | increase in proteolysis | significantly enhanced |
